Reference: patent publication US4071411A, “Antitumor antibiotics aclacinomycins A and B [RD-9187A]” (priority 1974, dated 1978)
≈ marks a conversion by molar mass, not a printed value. Read-outs that look alike come from different tables or passages of the source.

Key:
Vaccinia virus = assay: microbe, parasite or virus in culture; type: cell-based
[1] = system: lymphoma 6C3HED/OG, solid type; assay: growth of solid lymphoma 6C3HED/OG in CH3/He mice; type: in vivo; conditions: for Inhibition / 21 day survivors / Tumor weight/Body weight / Tumor weight: 10 days; for 21 day survivors: control 7/9; for Tumor weight/Body weight: control 29.6; for Tumor weight: control 7045
Sarcoma 180 = assay: growth of Sarcoma 180 in mice; type: in vivo
[2] = system: DNA synthesis (L1210 cells); assay: cells; type: cell-based, mice; conditions: Mus musculus, L1210, 1 h; 14C-precursor incorporation, 37° C., 60 min.; read-out: ID50, DNA synthesis
[3] = acute toxicity, single injection; type: in vivo, Mouse; conditions: mouse, in vivo, single injection
Mouse = assay: acute toxicity, single injection; type: in vivo; conditions: mice
Ehrlich carcinoma = assay: growth of Ehrlich carcinoma in mice; type: in vivo; conditions: ascites and solid forms
ascitic hepatoma AH44 = assay: survival of Donryu rats grafted with ascitic hepatoma AH44; type: in vivo; conditions: 2 mg./kg./day i.p., 10 consecutive days; control average survival 14.5 days
[4] = system: lymphoma 6C3HED/OG, ascitic type; assay: ascitic lymphoma 6C3HED/OG in CH3/He mice; type: in vivo; conditions: for T/C (Survival ratio: Tested/control) / 62 day survivors / MST (Mean survival time): 10 days; for 62 day survivors: control 0/3; for MST (Mean survival time): control 20.5
[5] = in vivo
hepatomas = hepatomas in rats (summary in words); type: in vivo
leukemia P388 = leukemia P388 in mice (summary in words); type: in vivo
L1210 leukemia cells = assay: survival of mice with L1210 leukemia, treatment days 1, 5 and 9; type: in vivo; conditions: for 30 day survivors / Mean survival time: days 1, 5 and 9; for 30 day survivors: control 0/10; for Mean survival time: control 10.4
Text: Mice are inoculated intraperitoneally with a suspension of L1210 leukemia cells and treated with solutions of different concentrations of aclacinomycin A and 1, 5 and 9 days following the tumor implantation.

[6] = cardiotoxicity (general statement); conditions: in vivo

CCC1(O)CC(OC2CC(N(C)C)C(OC3CC(O)C(OC4CCC(=O)C(C)O4)C(C)O3)C(C)O2)c2c(cc3c(c2O)C(=O)c2c(O)cccc2C3=O)C1C(=O)OC (stereo not shown) [Aclacinomycin A]
inhibition of growth of vaccinia virus (in words) (Vaccinia virus; HeLa cells): effective in inhibiting the growth | IC50 (Vaccinia virus; Orthopoxvirus vaccinia, HeLa, read-out: ID50, Vaccinia virus): < 10 µg/mL | Inhibition ([1]; 0.5 mg./kg./day i.p.): 47.6% | 21 day survivors ([1]; 0.5 mg./kg./day i.p.): 3/3 | Tumor weight/Body weight ([1]; 0.5 mg./kg./day i.p.): 12.4% | Tumor weight ([1]; 0.5 mg./kg./day i.p.): 3695 mg | Inhibition ([1]; 1 mg./kg./day i.p.): 64.5% | 21 day survivors ([1]; 1 mg./kg./day i.p.): 3/3 | Tumor weight/Body weight ([1]; 1 mg./kg./day i.p.): 9.5% | Tumor weight ([1]; 1 mg./kg./day i.p.): 2501 mg | Inhibition ([1]; 2 mg./kg./day i.p.): 34.2% | 21 day survivors ([1]; 2 mg./kg./day i.p.): 3/3 | Tumor weight/Body weight ([1]; 2 mg./kg./day i.p.): 15.1% | Tumor weight ([1]; 2 mg./kg./day i.p.): 4633 mg | Inhibition ([1]; 4 mg./kg./day i.p.): 28.7% | 21 day survivors ([1]; 4 mg./kg./day i.p.): 0/3 | Tumor weight/Body weight ([1]; 4 mg./kg./day i.p.): 19.5% | Tumor weight ([1]; 4 mg./kg./day i.p.): 5023 mg | inhibition of growth of solid 6C3HED/OG tumor (in words) ([1]; i.p. daily for 10 days): marked inhibition of the growth | inhibition of growth of Sarcoma 180 (Sarcoma 180): effective in inhibiting the growth | IC50 [2]: 1.1 µg/mL (≈ 1.35 µM) | LD50 ([3]; ip, intraperitoneal): 22.6 mg/kg | LD50 ([3]; intravenous): 33.7 mg/kg | lethal dose (LD50), in words (Mouse): high lethal dose | inhibition of growth of Ehrlich carcinoma (Ehrlich carcinoma): effective in inhibiting the growth | survival 30 days after the experiment (ascitic hepatoma AH44): all the treated rats were alive 30 days after the experiment | T/C (Survival ratio: Tested/control) ([4]; 0.5 mg./kg./day i.p.): 73% | 62 day survivors ([4]; 0.5 mg./kg./day i.p.): 0/3 | MST (Mean survival time) ([4]; 0.5 mg./kg./day i.p.): 15.0 days | T/C (Survival ratio: Tested/control) ([4]; 1 mg./kg./day i.p.): 183% | 62 day survivors ([4]; 1 mg./kg./day i.p.): 1/3 | MST (Mean survival time) ([4]; 1 mg./kg./day i.p.): 37.5 days | T/C (Survival ratio: Tested/control) ([4]; 2 mg./kg./day i.p.): 155% | 62 day survivors ([4]; 2 mg./kg./day i.p.): 0/3 | MST (Mean survival time) ([4]; 2 mg./kg./day i.p.): 31.8 days | T/C (Survival ratio: Tested/control) ([4]; 4 mg./kg./day i.p.): 98% | 62 day survivors ([4]; 4 mg./kg./day i.p.): 0/3 | MST (Mean survival time) ([4]; 4 mg./kg./day i.p.): 20.1 days | inhibition of growth of ascitic 6C3HED/OG tumor (in words) ([4]; i.p. daily for 10 days): marked inhibition of the growth | cardiotoxicity [5]: low cardiotoxicity | inhibition of growth of hepatomas (hepatomas): effective in inhibiting the growth | inhibition of growth of leukemia P388 (leukemia P388): effective in inhibiting the growth | life prolongation, mice inoculated with leukemia P388 (leukemia P388): markedly prolong the lives | 30 day survivors (L1210 leukemia cells; 1.5 mg/kg/day): 0/5 | Mean survival time (L1210 leukemia cells; 1.5 mg/kg/day): 12.6 days | 30 day survivors (L1210 leukemia cells; 3 mg/kg/day): 2/5 | Mean survival time (L1210 leukemia cells; 3 mg/kg/day): 23.3 days | 30 day survivors (L1210 leukemia cells; 6 mg/kg/day): 2/5 | Mean survival time (L1210 leukemia cells; 6 mg/kg/day): 21.7 days | 30 day survivors (L1210 leukemia cells; 12 mg/kg/day): 0/5 | Mean survival time (L1210 leukemia cells; 12 mg/kg/day): 16.1 days | mean survival time of the treated mice (in words) (L1210 leukemia cells; 6 and 3 mg./kg./day): increased considerably

CCC1(O)CC(OC2CC(N(C)C)C(OC3CC4OC5CC(=O)C(C)OC5OC4C(C)O3)C(C)O2)c2c(cc3c(c2O)C(=O)c2c(O)cccc2C3=O)C1C(=O)OC (stereo not shown) [Aclacinomycin B]
inhibition of growth of vaccinia virus (in words) (Vaccinia virus): effective in inhibiting the growth | IC50 (Vaccinia virus; Orthopoxvirus vaccinia, HeLa; read-out: ID50, Vaccinia virus): < 10 µg/mL | cardiotoxicity [6]: low cardiotoxicity | IC50 [2]: 4 µg/mL (≈ 4.94 µM) | LD50 ([3]; ip, intraperitoneal): 13.7 mg/kg | LD50 ([3]; intravenous): 16.4 mg/kg | lethal dose (LD50), in words (Mouse): high lethal dose | inhibition of growth of leukemia P388 (leukemia P388): effective in inhibiting the growth | life prolongation, mice inoculated with leukemia P388 (leukemia P388): markedly prolong the lives
